Measured values from patent publication US9005922B2, “Sensor chip for screening topoisomerase inhibitor and screening method thereof” (Taipei Medical University, priority 2010, dated 2015).

Columns and labels:
[1] = molecular target: T1, recombinant human topoisomerase I (hTop I) (Homo sapiens, UniProt P11387); assay: Gel electrophoresis assay of pUC19 supercoiled DNA relaxation by hTop I; type: biochemical; conditions: pUC19 plasmid DNA with hTop I, agarose gel, CPT 2-8 μM, FIG. 4 lanes 3-6
T1 construct: made in house
T1 sequence (P11387 1-765): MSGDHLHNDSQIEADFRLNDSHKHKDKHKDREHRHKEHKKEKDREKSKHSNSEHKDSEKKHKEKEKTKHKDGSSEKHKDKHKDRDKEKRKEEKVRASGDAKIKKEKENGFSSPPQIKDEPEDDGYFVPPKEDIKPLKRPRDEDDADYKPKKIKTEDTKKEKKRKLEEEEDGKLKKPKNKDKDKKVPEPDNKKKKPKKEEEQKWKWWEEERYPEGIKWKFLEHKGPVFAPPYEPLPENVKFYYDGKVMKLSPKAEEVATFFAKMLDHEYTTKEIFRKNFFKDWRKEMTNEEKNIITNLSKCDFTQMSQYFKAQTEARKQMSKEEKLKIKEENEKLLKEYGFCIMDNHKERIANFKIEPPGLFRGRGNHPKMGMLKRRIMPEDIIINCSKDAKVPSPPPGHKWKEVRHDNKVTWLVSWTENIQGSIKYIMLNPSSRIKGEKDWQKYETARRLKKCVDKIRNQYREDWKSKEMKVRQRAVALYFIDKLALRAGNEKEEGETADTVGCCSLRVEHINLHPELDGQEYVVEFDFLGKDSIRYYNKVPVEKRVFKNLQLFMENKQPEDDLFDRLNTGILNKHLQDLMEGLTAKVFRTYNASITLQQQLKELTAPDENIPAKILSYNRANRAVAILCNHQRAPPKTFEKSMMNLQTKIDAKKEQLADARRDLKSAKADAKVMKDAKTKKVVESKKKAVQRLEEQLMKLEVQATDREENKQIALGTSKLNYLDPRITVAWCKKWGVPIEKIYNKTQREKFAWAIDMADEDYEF
Description: The pUC19 plasmid DNA is closely circular double-stranded supercoiled DNA. When the pUC19 plasmid DNA is interacted with the Top I, one strand of the circular double-stranded supercoiled DNA is cleaved, separated and religated to form a relaxed form. A gel electrophoresis assay is used to evaluate the conformational change of pUC19 plasmid DNA.

immobilized hTop I = molecular target: T2, immobilized hTop I (Homo sapiens, UniProt P11387); assay: SPR assay on sensor chip with immobilized hTop I, inhibitor alone without DNA in analytes; type: binding; conditions: CPT alone 0-250 nM, no DNA in analytes, FIG. 8
T2 construct: made in house
T2 sequence (P11387 1-765): T1 sequence (P11387 1-765)
Method: (§1) Briefly, the surface of the micro-fluid chip is activated with 0.05-0.5 M N-hydroxysuccinimide and 0.1-0.5 M N-ethyl-N′-(3-dimethylaminopropyl) carbodiimimide at a flow rate of 25 μL/min. The hTop I is diluted in 10 mM sodium acetate and adjusted pH values to pH 3.0-10.0, preferably to pH 5.0-8.5, especially to pH 7.5. The hTop I is immobilized on the micro-fluid chip at 20-40[…] (preferably at 25[…]) using a flow rate of 10-40 μL/min (preferably 25-30 μL/min, specially 25 μL/min) for 60-300 seconds (preferably 200-300 seconds), and therefore the contents of the hTop I are about 20-150 μL. Activated amine groups are quenched with injecting 1 M ethanolamine (pH 7.0-9.0). Recombinant hTop I was covalently coupled to the carboxymethylated dextran surface of the chip using standard amine-coupling chemistry.
[…] […] The interaction causes an increase in the higher the mass of ligands immobilized on the micro-fluid chip, and is reflected in a rise in RUs.

[2] = molecular target: T3, hTopI-DNA cleavage complex (Homo sapiens, UniProt P11387); assay: SPR assay on sensor chip with immobilized hTop I, inhibitor together with pUC19 plasmid DNA in analytes; type: binding
T3 construct: made in house
T3 sequence (P11387 1-765): T1 sequence (P11387 1-765)
Method: as §1
To characterize the drug-binding kinetics using the SPR sensor chip, plasmid DNA (1.0 μg/ml) is included in the analytes. […] The interaction causes an increase in the higher the mass of ligands immobilized on the micro-fluid chip, and is reflected in a rise in RUs.

[3] = pUC19 plasmid DNA 1.0 μg/ml plus CPT, compared to DNA only, ProteOn Manager 2.0 calculation

Row | Compound | inhibitory effect on hTop I relaxation activity (supercoiled DNA retained) [1] | binding to hTop I (RU values) (immobilized hTop I) | RU response (binding) ([2]; pUC19 plasmid DNA 1.0 μg/ml plus CPT 0, 62.5, 125 and 250 nM, FIG. 9) | Ka [2, 3] | Kd [2, 3] | binding to hTop I immobilized on the micro-fluid chip ([2]; VP-16 and pUC19 plasmid DNA loaded simultaneously)
1 | CC[C@@]1(O)C(=O)OCc2c1cc1n(c2=O)Cc2cc3ccccc3nc2-1 [CPT, camptothecin] | inhibited hTop I relaxation activity | does not bind to hTopI without DNA | RU increases in a concentration-dependent manner | 9.11×10^7 | 3.74×10^−21 | 
2 | COc1cc([C@@H]2c3cc4c(cc3[C@@H](O[C@@H]3O[C@@H]5CO[C@@H](C)O[C@H]5[C@H](O)[C@H]3O)[C@H]3COC(=O)[C@H]23)OCO4)cc(OC)c1O [VP-16, etoposide] |  |  |  |  |  | does not bind to the hTop I
